Experimental data: patent US20230085307A1, “PYRIDAZINONE COMPOUND AND HERBICIDE” (NISSAN CHEMICAL CORPORATION, priority 2019, published 2023)

Assays:
velvetleaf [1] = assay: Test Example 4: herbicidal effect by soil treatment (Table 19, symbol M); assay type: in vivo, velvetleaf (Abutilon theophrasti); details: amount of applied herbicide 320 g/ha
Outline: (§1)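 Scoring uses the grading scale of an earlier test, three weeks post-application. Treatment consists of spraying a diluted emulsion formulation across the surface of sterilized diluvial soil in which seeds are buried near 1.5 cm deep; boxes are kept in a greenhouse between 25° C. and 30° C.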

blackgrass [2] = assay: Test Example 4: herbicidal effect by soil treatment (Table 19, symbol J); assay type: in vivo, blackgrass (Alopecurus myosuroides); details: amount of applied herbicide 320 g/ha
Outline: as §1

redroot pigweed [3] = assay: Test Example 5: herbicidal effect by foliage application, plastic box (Table 20, symbol N); assay type: in vivo, redroot pigweed (Amaranthus retroflexus); details: 320 g/ha
Outline: (§2)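 Post-emergence foliar test in sterilized diluvial soil. Compound applied as water-diluted emulsion at a predetermined rate to 14-day-old plants; evaluation at three weeks.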

barnyard grass [4] = assay: Test Example 5: herbicidal effect by foliage application, plastic box (Table 20, symbol H); assay type: in vivo, barnyard grass (Echinochloa crus-galli); details: 320 g/ha
Outline: as §2

barnyard grass [5] = assay: Test Example 3: herbicidal effect by foliage application, Wagner pot (Table 18, symbol H); assay type: in vivo, barnyard grass (Echinochloa crus-galli); details: 320 g/ha
Outline: (§3)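 Plants were sown in alluvial soil held under 0.1–0.5 cm standing water and grown 14 days in a greenhouse at 25–30 °C. An emulsifiable formulation, water-diluted to the set dose, was then sprayed onto the foliage, and effects were scored three weeks later using previously defined criteria.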

lambsquarters [6] = assay: Test Example 4: herbicidal effect by soil treatment (Table 19, symbol O); assay type: in vivo, lambsquarters (Chenopodium album); details: amount of applied herbicide 320 g/ha
Outline: as §1

barnyard grass [7] = assay: Test Example 4: herbicidal effect by soil treatment (Table 19, symbol H); assay type: in vivo, barnyard grass (Echinochloa crus-galli); details: amount of applied herbicide 320 g/ha
Outline: as §1

persian speedwell [8] = assay: Test Example 4: herbicidal effect by soil treatment (Table 19, symbol R); assay type: in vivo, Persian speedwell (Veronica persica); details: amount of applied herbicide 320 g/ha
Outline: as §1

southern crabgrass [9] = assay: Test Example 5: herbicidal effect by foliage application, plastic box (Table 20, symbol F); assay type: in vivo, southern crabgrass (Digitaria ciliaris); details: 320 g/ha
Outline: as §2

redroot pigweed [10] = assay: Test Example 4: herbicidal effect by soil treatment (Table 19, symbol N); assay type: in vivo, redroot pigweed (Amaranthus retroflexus); details: amount of applied herbicide 320 g/ha
Outline: as §1

lambsquarters [11] = assay: Test Example 5: herbicidal effect by foliage application, plastic box (Table 20, symbol O); assay type: in vivo, lambsquarters (Chenopodium album); details: 320 g/ha
Outline: as §2

green foxtail [12] = assay: Test Example 5: herbicidal effect by foliage application, plastic box (Table 20, symbol G); assay type: in vivo, green foxtail (Setaria viridis); details: 320 g/ha
Outline: as §2

wild oat [13] = assay: Test Example 5: herbicidal effect by foliage application, plastic box (Table 20, symbol I); assay type: in vivo, wild oat (Avena fatua); details: 320 g/ha
Outline: as §2

chickweed [14] = assay: Test Example 5: herbicidal effect by foliage application, plastic box (Table 20, symbol P); assay type: in vivo, common chickweed (Stellaria media); details: 320 g/ha
Outline: as §2

green foxtail [15] = assay: Test Example 4: herbicidal effect by soil treatment (Table 19, symbol G); assay type: in vivo, green foxtail (Setaria viridis); details: amount of applied herbicide 320 g/ha
Outline: as §1

southern crabgrass [16] = assay: Test Example 4: herbicidal effect by soil treatment (Table 19, symbol F); assay type: in vivo, southern crabgrass (Digitaria ciliaris); details: amount of applied herbicide 320 g/ha
Outline: as §1

windgrass [17] = assay: Test Example 5: herbicidal effect by foliage application, plastic box (Table 20, symbol L); assay type: in vivo, windgrass (Apera spica-venti); details: 320 g/ha
Outline: as §2

windgrass [18] = assay: Test Example 4: herbicidal effect by soil treatment (Table 19, symbol L); assay type: in vivo, windgrass (Apera spica-venti); details: amount of applied herbicide 320 g/ha
Outline: as §1

Italian ryegrass [19] = assay: Test Example 5: herbicidal effect by foliage application, plastic box (Table 20, symbol K); assay type: in vivo, Italian ryegrass (Lolium multiflorum); details: 320 g/ha
Outline: as §2

blackgrass [20] = assay: Test Example 5: herbicidal effect by foliage application, plastic box (Table 20, symbol J); assay type: in vivo, blackgrass (Alopecurus myosuroides); details: 320 g/ha
Outline: as §2

oval-leafed pondweed = assay: Test Example 1: herbicidal activity, application before weed generation under submerged conditions (Table 16, symbol C); assay type: in vivo, oval-leafed pondweed (Monochoria vaginalis); details: amount of applied herbicide 320 g/ha
Outline: (§4)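 Emulsion formulation, water-diluted to set dose, was put onto the flooded surface (4 cm depth, alluvial soil) the same day weeds were sown and 2.5-leaf rice transplanted. After 3 weeks at 25-30 °C under glass, each species was rated 0 (≤5% kill) to 5 (≥90% kill).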

wild oat [21] = assay: Test Example 4: herbicidal effect by soil treatment (Table 19, symbol I); assay type: in vivo, wild oat (Avena fatua); details: amount of applied herbicide 320 g/ha
Outline: as §1

Italian ryegrass [22] = assay: Test Example 4: herbicidal effect by soil treatment (Table 19, symbol K); assay type: in vivo, Italian ryegrass (Lolium multiflorum); details: amount of applied herbicide 320 g/ha
Outline: as §1

Chinese sprangletop = assay: Test Example 3: herbicidal effect by foliage application, Wagner pot (Table 18, symbol D); assay type: in vivo, chinese sprangletop (Leptochloa chinensis); details: 320 g/ha
Outline: as §3

persian speedwell [23] = assay: Test Example 5: herbicidal effect by foliage application, plastic box (Table 20, symbol R); assay type: in vivo, Persian speedwell (Veronica persica); details: 320 g/ha
Outline: as §2

Japanese bulrush = assay: Test Example 1: herbicidal activity, application before weed generation under submerged conditions (Table 16, symbol B); assay type: in vivo, Japanese bulrush (Schoenoplectus juncoides); details: amount of applied herbicide 320 g/ha
Outline: as §4

chickweed [24] = assay: Test Example 4: herbicidal effect by soil treatment (Table 19, symbol P); assay type: in vivo, common chickweed (Stellaria media); details: amount of applied herbicide 320 g/ha
Outline: as §1

late watergrass = assay: Test Example 1: herbicidal activity, application before weed generation under submerged conditions (Table 16, symbol A); assay type: in vivo, late watergrass (Echinochloa oryzicola); details: amount of applied herbicide 320 g/ha
Outline: as §4

rice flat sedge = assay: Test Example 3: herbicidal effect by foliage application, Wagner pot (Table 18, symbol E); assay type: in vivo, rice flat sedge (Cyperus iria); details: 320 g/ha
Outline: as §3

velvetleaf [25] = assay: Test Example 5: herbicidal effect by foliage application, plastic box (Table 20, symbol M); assay type: in vivo, velvetleaf (Abutilon theophrasti); details: 320 g/ha
Outline: as §2

[26] = foliage application, three weeks after application
[27] = foliage application after 14-day growth, evaluated three weeks after application

Row | Structure (SMILES) | Herbicidal effect by soil treatment, M: velvetleaf (velvetleaf [1]) | Herbicidal effect by soil treatment, J: blackgrass (blackgrass [2]) | herbicidal effect on barnyard grass (H) (barnyard grass [5]) | Herbicidal effect by soil treatment, O: lambsquarters (lambsquarters [6]) | Herbicidal effect by soil treatment, H: barnyard grass (barnyard grass [7]) | Herbicidal effect by soil treatment, R: persian speedwell (persian speedwell [8]) | Herbicidal effect by soil treatment, N: redroot pigweed (redroot pigweed [10]) | Herbicidal effect by soil treatment, G: green foxtail (green foxtail [15]) | Herbicidal effect by soil treatment, F: southern crabgrass (southern crabgrass [16]) | Herbicidal effect by soil treatment, L: windgrass (windgrass [18]) | Herbicidal effect, C: oval-leafed pondweed (oval-leafed pondweed) | Herbicidal effect by soil treatment, I: wild oat (wild oat [21]) | Herbicidal effect by soil treatment, K: Italian ryegrass (Italian ryegrass [22]) | herbicidal effect on Chinese sprangletop (D) (Chinese sprangletop) | Herbicidal effect, B: Japanese bulrush (Japanese bulrush) | Herbicidal effect by soil treatment, P: chickweed (chickweed [24]) | Herbicidal effect, A: late watergrass (late watergrass) | herbicidal effect on rice flat sedge (E) (rice flat sedge) | also measured
1 | COCc1ccc2c(-c3c(O)c(C)nn(C)c3=O)c(-c3ccccc3OC)sc2c1 [3-137] | 0 (Herbicidal rate of 5% or less (almost no effect)) | 0 (Herbicidal rate of 5% or less (almost no effect)) | 3 (Herbicidal rate of 40% or more and less than 70%) | 0 (Herbicidal rate of 5% or less (almost no effect)) | 5 (Herbicidal rate of 90% or more (almost completely withered)) | 4 (Herbicidal rate of 70% or more and less than 90%) | 0 (Herbicidal rate of 5% or less (almost no effect)) | 1 (Herbicidal rate of 5% or more and less than 20%) | 0 (Herbicidal rate of 5% or less (almost no effect)) | 0 (Herbicidal rate of 5% or less (almost no effect)) | 0 (Herbicidal rate of 5% or less (almost no effect)) | 1 (Herbicidal rate of 5% or more and less than 20%) | 1 (Herbicidal rate of 5% or more and less than 20%) | 5 (Herbicidal rate of 90% or more (almost completely withered)) | 0 (Herbicidal rate of 5% or less (almost no effect)) | 5 (Herbicidal rate of 90% or more (almost completely withered)) | 3 (Herbicidal rate of 40% or more and less than 70%) | 5 (Herbicidal rate of 90% or more (almost completely withered)) | N: redroot pigweed, herbicidal effect grade (redroot pigweed [3]; [26]): 1 (Herbicidal rate of 5% or more and less than 20%); H: barnyard grass, herbicidal effect grade (barnyard grass [4]; [26]): 3 (Herbicidal rate of 40% or more and less than 70%); F: southern crabgrass, herbicidal effect grade (southern crabgrass [9]; [26]): 5 (Herbicidal rate of 90% or more (almost completely withered)); O: lambsquarters, herbicidal effect grade (lambsquarters [11]; [26]): 0 (Herbicidal rate of 5% or less (almost no effect)); G: green foxtail, herbicidal effect grade (green foxtail [12]; [26]): 5 (Herbicidal rate of 90% or more (almost completely withered)); I: wild oat, herbicidal effect grade (wild oat [13]; [26]): 4 (Herbicidal rate of 70% or more and less than 90%); P: chickweed, herbicidal effect grade (chickweed [14]; [26]): 5 (Herbicidal rate of 90% or more (almost completely withered)); L: windgrass, herbicidal effect grade (windgrass [17]; [26]): 4 (Herbicidal rate of 70% or more and less than 90%); K: Italian ryegrass, herbicidal effect grade (Italian ryegrass [19]; [26]): 4 (Herbicidal rate of 70% or more and less than 90%); J: blackgrass, herbicidal effect grade (blackgrass [20]; [26]): 4 (Herbicidal rate of 70% or more and less than 90%); R: persian speedwell, herbicidal effect grade (persian speedwell [23]; [26]): 5 (Herbicidal rate of 90% or more (almost completely withered)); M: velvetleaf, herbicidal effect grade (velvetleaf [25]; [26]): 5 (Herbicidal rate of 90% or more (almost completely withered))
2 | COc1ccccc1-c1sc2c(F)cccc2c1-c1c(O)c(C)nn(C)c1=O [4-003] | 0 (Herbicidal rate of 5% or less (almost no effect)) | 0 (Herbicidal rate of 5% or less (almost no effect)) | 3 (Herbicidal rate of 40% or more and less than 70%) | 3 (Herbicidal rate of 40% or more and less than 70%) | 0 (Herbicidal rate of 5% or less (almost no effect)) | 1 (Herbicidal rate of 5% or more and less than 20%) | 4 (Herbicidal rate of 70% or more and less than 90%) | 0 (Herbicidal rate of 5% or less (almost no effect)) | 0 (Herbicidal rate of 5% or less (almost no effect)) | 0 (Herbicidal rate of 5% or less (almost no effect)) | 0 (Herbicidal rate of 5% or less (almost no effect)) | 0 (Herbicidal rate of 5% or less (almost no effect)) | 0 (Herbicidal rate of 5% or less (almost no effect)) | 3 (Herbicidal rate of 40% or more and less than 70%) | 0 (Herbicidal rate of 5% or less (almost no effect)) | 1 (Herbicidal rate of 5% or more and less than 20%) | 3 (Herbicidal rate of 40% or more and less than 70%) | 3 (Herbicidal rate of 40% or more and less than 70%) | herbicidal effect on N: redroot pigweed (evaluation grade 0-5) (redroot pigweed [3]; [27]): 3 (Herbicidal rate of 40% or more and less than 70%); herbicidal effect on H: barnyard grass (evaluation grade 0-5) (barnyard grass [4]; [27]): 1 (Herbicidal rate of 5% or more and less than 20%); herbicidal effect on F: southern crabgrass (evaluation grade 0-5) (southern crabgrass [9]; [27]): 1 (Herbicidal rate of 5% or more and less than 20%); herbicidal effect on O: lambsquarters (evaluation grade 0-5) (lambsquarters [11]; [27]): 3 (Herbicidal rate of 40% or more and less than 70%); herbicidal effect on G: green foxtail (evaluation grade 0-5) (green foxtail [12]; [27]): 4 (Herbicidal rate of 70% or more and less than 90%); herbicidal effect on I: wild oat (evaluation grade 0-5) (wild oat [13]; [27]): 0 (Herbicidal rate of 5% or less (almost no effect)); herbicidal effect on P: chickweed (evaluation grade 0-5) (chickweed [14]; [27]): 5 (Herbicidal rate of 90% or more (almost completely withered)); herbicidal effect on L: windgrass (evaluation grade 0-5) (windgrass [17]; [27]): 3 (Herbicidal rate of 40% or more and less than 70%); herbicidal effect on K: Italian ryegrass (evaluation grade 0-5) (Italian ryegrass [19]; [27]): 4 (Herbicidal rate of 70% or more and less than 90%); herbicidal effect on J: blackgrass (evaluation grade 0-5) (blackgrass [20]; [27]): 4 (Herbicidal rate of 70% or more and less than 90%); herbicidal effect on R: persian speedwell (evaluation grade 0-5) (persian speedwell [23]; [27]): 5 (Herbicidal rate of 90% or more (almost completely withered)); herbicidal effect on M: velvetleaf (evaluation grade 0-5) (velvetleaf [25]; [27]): 3 (Herbicidal rate of 40% or more and less than 70%)
